From PubChem BioAssay (NCI)
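At the GI50, growth is halved. TGI is the concentration that stops growth completely.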

How the values were obtained:
Experiment in all cases: growth of human tumour cells (NCI), 384-well format
786-0 renal = tested on: 786-0 renal
A498 renal = tested on: A498 renal
A549 NSCLC = tested on: A549 NSCLC
ACHN renal = tested on: ACHN renal
BT-549 breast = tested on: BT-549 breast
CAKI-1 renal = tested on: CAKI-1 renal
CCRF-CEM leukemia = tested on: CCRF-CEM leukemia
COLO 205 colon = tested on: COLO 205 colon
DU-145 prostate = tested on: DU-145 prostate
EKVX NSCLC = tested on: EKVX NSCLC
HCC-2998 colon = tested on: HCC-2998 colon
HCT-116 colon = tested on: HCT-116 colon
HCT-15 colon = tested on: HCT-15 colon
HL-60(TB) leukemia = tested on: HL-60(TB) leukemia
HOP-62 NSCLC = tested on: HOP-62 NSCLC
HOP-92 NSCLC = tested on: HOP-92 NSCLC
HS 578T breast = tested on: HS 578T breast
HT29 colon = tested on: HT29 colon
IGROV1 ovarian = tested on: IGROV1 ovarian
K-562 leukemia = tested on: K-562 leukemia
KM12 colon = tested on: KM12 colon
LOX IMVI melanoma = tested on: LOX IMVI melanoma
M14 melanoma = tested on: M14 melanoma
MALME-3M melanoma = tested on: MALME-3M melanoma
MCF7 breast = tested on: MCF7 breast
MDA-MB-231 breast = tested on: MDA-MB-231 breast
MDA-MB-435 melanoma = tested on: MDA-MB-435 melanoma
MDA-MB-468 breast = tested on: MDA-MB-468 breast
MOLT-4 leukemia = tested on: MOLT-4 leukemia
NCI-H226 lung = tested on: NCI-H226 lung
NCI-H23 lung = tested on: NCI-H23 lung
NCI-H322M lung = tested on: NCI-H322M lung
NCI-H460 NSCLC = tested on: NCI-H460 NSCLC
NCI-H522 lung = tested on: NCI-H522 lung
NCI/ADR-RES ovarian = tested on: NCI/ADR-RES ovarian
OVCAR-3 ovarian = tested on: OVCAR-3 ovarian
OVCAR-4 ovarian = tested on: OVCAR-4 ovarian
OVCAR-5 ovarian = tested on: OVCAR-5 ovarian
OVCAR-8 ovarian = tested on: OVCAR-8 ovarian
PC-3 prostate = tested on: PC-3 prostate
RPMI-8226 leukemia = tested on: RPMI-8226 leukemia
RXF 393 renal = tested on: RXF 393 renal
SF-268 CNS = tested on: SF-268 CNS
SF-295 CNS = tested on: SF-295 CNS
SF-539 CNS = tested on: SF-539 CNS
SK-MEL-28 melanoma = tested on: SK-MEL-28 melanoma
SK-MEL-5 melanoma = tested on: SK-MEL-5 melanoma
SK-OV-3 ovarian = tested on: SK-OV-3 ovarian
SN12C renal = tested on: SN12C renal
SNB-19 CNS = tested on: SNB-19 CNS
SNB-75 CNS = tested on: SNB-75 CNS
SR leukemia = tested on: SR leukemia
SW-620 colon = tested on: SW-620 colon
T-47D breast = tested on: T-47D breast
TK-10 renal = tested on: TK-10 renal
U251 glioblastoma = tested on: U251 glioblastoma
UACC-257 melanoma = tested on: UACC-257 melanoma
UO-31 renal = tested on: UO-31 renal

Question: Which GI50 ([…]-0 renal) does the source give for `O=C(N[C@@H](Cc1coc2ccccc12)B(O)O)[C@@H]1C[C@H]2CC[C@@H]1O2` here?
Answer: 2.74 µM

Question: What about the TGI (786-0 renal) of the same molecule?
Answer: 13.9 µM

Question: What about the GI50 (A498 renal) of the same molecule?
Answer: 1.62 µM

Question: What about the TGI (A498 renal) of the same molecule?
Answer: 5.91 µM

Question: What about the GI50 (A549 NSCLC) of the same molecule?
Answer: 10.7 µM

Question: And the TGI (A549 NSCLC)?
Answer: > 100 µM

Question: What about the GI50 (ACHN renal) of the same molecule?
Answer: 1.09 µM

Question: And the TGI (ACHN renal)?
Answer: > 100 µM

Question: What about the GI50 (BT-549 breast) of the same molecule?
Answer: 2.26 µM

Question: What about the TGI (BT-549 breast) of the same molecule?
Answer: 5.49 µM

Question: What about the GI50 (CAKI-1 renal) of the same molecule?
Answer: 3.24 µM

Question: What about the TGI (CAKI-1 renal) of the same molecule?
Answer: > 100 µM

Question: What about the GI50 (CCRF-CEM leukemia) of the same molecule?
Answer: 0.197 µM

Question: And the TGI (CCRF-CEM leukemia)?
Answer: 0.504 µM

Question: What about the GI50 (COLO 205 colon) of the same molecule?
Answer: 21.2 µM

Question: What about the TGI (COLO 205 colon) of the same molecule?
Answer: > 100 µM

Question: And the GI50 (DU-145 prostate)?
Answer: 4.28 µM

Question: And the TGI (DU-145 prostate)?
Answer: > 100 µM

Question: What about the GI50 (EKVX NSCLC) of the same molecule?
Answer: 6.89 µM

Question: And the TGI (EKVX NSCLC)?
Answer: 91.9 µM

Question: What about the GI50 (HCC-2998 colon) of the same molecule?
Answer: 4.45 µM

Question: And the TGI (HCC-2998 colon)?
Answer: 20.9 µM

Question: What about the GI50 (HCT-116 colon) of the same molecule?
Answer: 2.08 µM

Question: And the TGI (HCT-116 colon)?
Answer: 8.46 µM

Question: What about the GI50 (HCT-15 colon) of the same molecule?
Answer: 4.26 µM

Question: What about the TGI (HCT-15 colon) of the same molecule?
Answer: 15.3 µM

Question: And the GI50 (HL-60(TB) leukemia)?
Answer: 0.355 µM

Question: What about the TGI (HL-60(TB) leukemia) of the same molecule?
Answer: 1.36 µM

Question: What about the GI50 (HOP-62 NSCLC) of the same molecule?
Answer: 3.87 µM

Question: What about the TGI (HOP-62 NSCLC) of the same molecule?
Answer: 17.1 µM

Question: What about the GI50 (HOP-92 NSCLC) of the same molecule?
Answer: 13.9 µM

Question: What about the TGI (HOP-92 NSCLC) of the same molecule?
Answer: 77.7 µM

Question: What about the GI50 (HS 578T breast) of the same molecule?
Answer: 1.8 µM

Question: And the TGI (HS 578T breast)?
Answer: 3.69 µM

Question: What about the GI50 (HT29 colon) of the same molecule?
Answer: 1.83 µM

Question: What about the TGI (HT29 colon) of the same molecule?
Answer: 4.44 µM

Question: And the GI50 (IGROV1 ovarian)?
Answer: 18.6 µM

Question: What about the TGI (IGROV1 ovarian) of the same molecule?
Answer: 92.1 µM

Question: What about the GI50 (K-562 leukemia) of the same molecule?
Answer: 7.21 µM

Question: And the TGI (K-562 leukemia)?
Answer: > 100 µM

Question: And the GI50 (KM12 colon)?
Answer: 5.64 µM

Question: What about the TGI (KM12 colon) of the same molecule?
Answer: 23.2 µM

Question: And the GI50 (LOX IMVI melanoma)?
Answer: 3.99 µM

Question: And the TGI (LOX IMVI melanoma)?
Answer: 16.8 µM

Question: And the GI50 (M14 melanoma)?
Answer: 2.73 µM

Question: And the TGI (M14 melanoma)?
Answer: 9.07 µM

Question: What about the GI50 (MALME-3M melanoma) of the same molecule?
Answer: 1.17 µM

Question: And the TGI (MALME-3M melanoma)?
Answer: 3.19 µM

Question: And the GI50 (MCF7 breast)?
Answer: 1.68 µM

Question: And the TGI (MCF7 breast)?
Answer: > 100 µM

Question: And the GI50 (MDA-MB-231 breast)?
Answer: 4.86 µM

Question: And the TGI (MDA-MB-231 breast)?
Answer: 23.3 µM

Question: What about the GI50 (MDA-MB-435 melanoma) of the same molecule?
Answer: 1.45 µM

Question: What about the TGI (MDA-MB-435 melanoma) of the same molecule?
Answer: 2.99 µM

Question: What about the GI50 (MDA-MB-468 breast) of the same molecule?
Answer: 2.29 µM

Question: And the TGI (MDA-MB-468 breast)?
Answer: 9.43 µM

Question: And the GI50 (MOLT-4 leukemia)?
Answer: 0.277 µM

Question: And the TGI (MOLT-4 leukemia)?
Answer: 1.13 µM

Question: What about the GI50 (NCI-H226 lung) of the same molecule?
Answer: 0.163 µM

Question: And the TGI (NCI-H226 lung)?
Answer: 0.439 µM

Question: And the GI50 (NCI-H23 lung)?
Answer: 3.7 µM

Question: And the TGI (NCI-H23 lung)?
Answer: 27.3 µM

Question: And the GI50 (NCI-H322M lung)?
Answer: 44.8 µM

Question: And the TGI (NCI-H322M lung)?
Answer: > 100 µM

Question: And the GI50 (NCI-H460 NSCLC)?
Answer: 16.7 µM

Question: What about the TGI (NCI-H460 NSCLC) of the same molecule?
Answer: > 100 µM

Question: What about the GI50 (NCI-H522 lung) of the same molecule?
Answer: 2 µM

Question: What about the TGI (NCI-H522 lung) of the same molecule?
Answer: 4.74 µM

Question: What about the GI50 (NCI/ADR-RES ovarian) of the same molecule?
Answer: 34.8 µM

Question: And the TGI (NCI/ADR-RES ovarian)?
Answer: > 100 µM

Question: And the GI50 (OVCAR-3 ovarian)?
Answer: 1.38 µM

Question: What about the TGI (OVCAR-3 ovarian) of the same molecule?
Answer: 3.8 µM

Question: What about the GI50 (OVCAR-4 ovarian) of the same molecule?
Answer: 7.3 µM

Question: And the TGI (OVCAR-4 ovarian)?
Answer: 60.6 µM

Question: And the GI50 (OVCAR-5 ovarian)?
Answer: 8.44 µM

Question: And the TGI (OVCAR-5 ovarian)?
Answer: > 100 µM

Question: What about the GI50 (OVCAR-8 ovarian) of the same molecule?
Answer: 30.9 µM

Question: What about the TGI (OVCAR-8 ovarian) of the same molecule?
Answer: > 100 µM

Question: And the GI50 (PC-3 prostate)?
Answer: 27.6 µM

Question: What about the TGI (PC-3 prostate) of the same molecule?
Answer: > 100 µM

Question: What about the GI50 (RPMI-8226 leukemia) of the same molecule?
Answer: 0.173 µM

Question: And the TGI (RPMI-8226 leukemia)?
Answer: 0.359 µM

Question: And the GI50 (RXF 393 renal)?
Answer: 1.22 µM

Question: What about the TGI (RXF 393 renal) of the same molecule?
Answer: 2.91 µM

Question: What about the GI50 (SF-268 CNS) of the same molecule?
Answer: 2.45 µM

Question: What about the TGI (SF-268 CNS) of the same molecule?
Answer: 7.43 µM

Question: What about the GI50 (SF-295 CNS) of the same molecule?
Answer: 1.49 µM

Question: What about the TGI (SF-295 CNS) of the same molecule?
Answer: 4.35 µM

Question: What about the GI50 (SF-539 CNS) of the same molecule?
Answer: 1.51 µM

Question: And the TGI (SF-539 CNS)?
Answer: 2.92 µM

Question: And the GI50 (SK-MEL-28 melanoma)?
Answer: 1.33 µM

Question: And the TGI (SK-MEL-28 melanoma)?
Answer: 4.17 µM

Question: What about the GI50 (SK-MEL-5 melanoma) of the same molecule?
Answer: 2.36 µM

Question: And the TGI (SK-MEL-5 melanoma)?
Answer: 7.59 µM

Question: What about the GI50 (SK-OV-3 ovarian) of the same molecule?
Answer: 4.71 µM

Question: And the TGI (SK-OV-3 ovarian)?
Answer: 55.7 µM

Question: What about the GI50 (SN12C renal) of the same molecule?
Answer: 10.7 µM

Question: What about the TGI (SN12C renal) of the same molecule?
Answer: > 100 µM

Question: What about the GI50 (SNB-19 CNS) of the same molecule?
Answer: 4.7 µM

Question: What about the TGI (SNB-19 CNS) of the same molecule?
Answer: 23.1 µM

Question: What about the GI50 (SNB-75 CNS) of the same molecule?
Answer: 2.99 µM

Question: What about the TGI (SNB-75 CNS) of the same molecule?
Answer: 11.2 µM

Question: And the GI50 (SR leukemia)?
Answer: 0.219 µM

Question: And the TGI (SR leukemia)?
Answer: 0.605 µM

Question: What about the GI50 (SW-620 colon) of the same molecule?
Answer: 1.81 µM

Question: And the TGI (SW-620 colon)?
Answer: 3.83 µM

Question: And the GI50 (T-47D breast)?
Answer: 5.11 µM

Question: What about the TGI (T-47D breast) of the same molecule?
Answer: 45.8 µM

Question: What about the GI50 (TK-10 renal) of the same molecule?
Answer: 1.84 µM

Question: And the TGI (TK-10 renal)?
Answer: 4.86 µM

Question: What about the GI50 (U251 glioblastoma) of the same molecule?
Answer: 14.8 µM

Question: What about the TGI (U251 glioblastoma) of the same molecule?
Answer: 52.5 µM

Question: And the GI50 (UACC-257 melanoma)?
Answer: 1.44 µM

Question: And the TGI (UACC-257 melanoma)?
Answer: 5.25 µM

Question: And the GI50 (UO-31 renal)?
Answer: 3.36 µM

Question: And the TGI (UO-31 renal)?
Answer: 13.4 µM
